Literature values as cited in patent publication US10226042B2, “Synergistic pre-emergent and post-emergent weed control compositions and methods of use thereof” (BAYER INTELLECTUAL PROPERTY GMBH, priority 2009, dated 2019).

Conditions: stated in words, no test described

SMILES	water solubility
O=C(O)COc1ccc(Cl)cc1Cl [2,4-D]	water soluble
COc1c(Cl)ccc(Cl)c1C(=O)O [dicamba]	water soluble
